# Measured values published in ChEMBL document CHEMBL1127188, “Phenylphosphonate monoester analogs of cocaine. Potential haptens for the generation of catalytic antibodies” (Bioorg Med Chem Lett, 1993).
# Species: Mus musculus
# Assay: Compound was tested for its ability to inhibit mAb (monoclonal antibody) binding to immobilized ova-10d; inhibited the binding of seven of nine mAbs to immobilized ova-10d, A - The IC50 of these seven mAb ranged from 15 to 350 uM
# Assay type: functional, organism-based
compound,measurement,value
COC(=O)C1C(OP(=O)(O)c2ccccc2)CC2CCC1N2C (stereo unspecified),IC50,A
